Measurements as given in EP4603105A1, “PHARMACEUTICAL COMPOSITION CONTAINING CYCLIC COMPOUND HAVING SELECTIVE KRAS INHIBITORY EFFECT AGAINST HRAS AND NRAS” (CHUGAI SEIYAKU KABUSHIKI KAISHA, priority 2022, dated 2024).

Experiments:
[1] = target: GDP-bound KRAS wild-type protein (Homo sapiens, UniProt P01116); experiment: Binding to KRAS by surface plasmon resonance (SPR), dissociation constant KD
Procedure, shortened: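 Read-out is KD from 1:1 fitting of single-cycle kinetics sensorgrams, blank-cycle and reference-surface corrected. Proteins were GDP-loaded, biotinylated Avi-fusions freshly captured each cycle at roughly 100–300 RU. Runs were at 30°C in HBS pH 7.4 with MgCl2, GDP and 4% DMSO.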

[2] = target: GDP-bound NRAS wild-type protein (Homo sapiens, UniProt P01111); experiment: Binding to NRAS by surface plasmon resonance (SPR), KD and KD ratio to KRAS
Procedure, shortened: (§1)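 Biotinylated GDP-bound RAS was captured at about 100–300 RU. Running buffer: HBS pH 7.4, 10 mM MgCl2, 10 µM GDP, 1 mM DTT, 0.01% Tween 20, 4% DMSO.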

[3] = target: HRAS wild-type protein (Homo sapiens, UniProt P01112); experiment: Binding to HRAS by surface plasmon resonance (SPR), KD and KD ratio to KRAS
Procedure, shortened: as §1

[4] = system: human lung cancer strain NCI-H441; type: cell-based
Procedure, shortened: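 Step one: dispense the test compound in serial DMSO dilutions. Step three: add the reagent and measure […].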

[5] = ratio of KD for GDP-bound NRAS wild-type protein to KD for KRAS
[6] = ratio of KD for HRAS wild-type protein to KD for KRAS
[7] = Single Cycle Kinetics, 1:1 binding model
[8] = ratio of KD value for GDP-bound NRAS wild-type protein to KD value for KRAS (SPR)
[9] = ratio of KD value for HRAS wild-type protein to KD value for KRAS (SPR)
[10] = ratio of the KD value with respect to GDP-bound NRAS wild-type protein to the KD value with respect to KRAS
[11] = ratio of the KD value with respect to HRAS wild-type protein to the KD value with respect to KRAS

Chain of GDP-bound NRAS wild-type protein (P01111 whole entry): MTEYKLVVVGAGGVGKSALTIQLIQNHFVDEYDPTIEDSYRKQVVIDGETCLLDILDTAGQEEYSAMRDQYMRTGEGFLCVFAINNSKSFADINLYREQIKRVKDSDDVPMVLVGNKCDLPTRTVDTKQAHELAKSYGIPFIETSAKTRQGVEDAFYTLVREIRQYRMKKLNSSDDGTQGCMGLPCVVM
Chain of GDP-bound KRAS wild-type protein (P01116 1-188 isoform P01116-2): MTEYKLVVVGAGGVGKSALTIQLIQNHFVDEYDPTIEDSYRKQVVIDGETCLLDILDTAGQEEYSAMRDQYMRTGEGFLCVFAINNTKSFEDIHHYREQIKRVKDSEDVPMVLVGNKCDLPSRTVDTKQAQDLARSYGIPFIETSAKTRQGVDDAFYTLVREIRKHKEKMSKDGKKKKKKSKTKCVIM
Chain of HRAS wild-type protein (P01112 whole entry): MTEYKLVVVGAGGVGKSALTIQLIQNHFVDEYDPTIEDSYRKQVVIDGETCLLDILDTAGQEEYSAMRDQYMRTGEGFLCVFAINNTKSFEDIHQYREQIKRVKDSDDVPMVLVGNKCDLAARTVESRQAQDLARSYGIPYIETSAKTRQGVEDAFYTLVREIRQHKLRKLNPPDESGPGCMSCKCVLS

| Kd ([1]; Single Cycle Kinetics) [nM] | IC50 [4] [nM] | Kd ([1]; 1:1 binding model) [nM] | Kd [1, 7] [nM] | Structure (SMILES) | NRAS /KRAS [2, 5] | HRAS /KRAS [3, 6] | NRAS /KRAS [2, 8] | HRAS /KRAS [3, 9] | NRAS /KRAS [2, 10] | HRAS /KRAS [3, 11] |
| --- | --- | --- | --- | --- | --- | --- | --- | --- | --- | --- |
| 0.32 | 40.5 |  |  | CCO[C@@H]1C[C@H]2C(=O)NC3(CCC3)C(=O)N(C)[C@@H](C3CCCC3)C(=O)N(C)[C@H](C(=O)N(C)C)CC(=O)N(C)[C@@H](CC)C(=O)N[C@@H]([C@@H](C)CC)C(=O)N(C)CC(=O)N(C)[C@H]3CCCCCN(C3=O)[C@@H](Cc3ccc(F)c(C)c3)C(=O)N(C)CC(=O)N[C@@H](CCc3cc(F)c(C(F)(F)F)c(F)c3)C(=O)N2C1 [PP0912] | B (a compound having 3 or more and less than 10 is denoted as B) | B (a compound having 3 or more and less than 10 is denoted as B) |  |  |  |  |
| 17 | 1390 |  |  | CCO[C@@H]1C[C@H]2C(=O)NC3(CCC3)C(=O)N(C)[C@@H](C3CCCC3)C(=O)N(C)[C@H](C(=O)N(C)C)CC(=O)N(C)[C@@H](CC)C(=O)N[C@@H]([C@@H](C)CC)C(=O)N3CC[C@@H]3C(=O)N(C)[C@H]3C/C=C\CCN(C3=O)[C@@H](Cc3ccc(C(F)(F)F)cc3)C(=O)N(C)CC(=O)N[C@@H](CCc3cc(F)c(C(F)(F)F)c(F)c3)C(=O)N2C1 [PP1064] | A (a compound having 10 or more and less than 20 is denoted as A) | A (a compound having 10 or more and less than 20 is denoted as A) |  |  |  |  |
|  | 41.3 | 0.96 |  | CCO[C@@H]1C[C@H]2C(=O)NC3(CC(C)(C)C3)C(=O)N(C)[C@@H](C3CCCC3)C(=O)N(C)[C@H](C(=O)N(C)CC)CC(=O)N(C)[C@@H]([C@@H](C)OC)C(=O)N[C@@H]([C@@H](C)CC)C(=O)N3CCC[C@H]3C(=O)N(C)[C@H]3C/C=C\CCN(C3=O)[C@@H](Cc3ccc(C)cc3)C(=O)N(C)CC(=O)N[C@@H](CCc3ccc(C(F)(F)F)c(Cl)c3)C(=O)N2C1 [PP3192] | A (a compound having 10 or more and less than 20 is denoted as A) | A (a compound having 10 or more and less than 20 is denoted as A) |  |  |  |  |
|  | 3 |  | 0.031 | CCO[C@@H]1C[C@H]2C(=O)N(C)C3(CCC3)C(=O)N(C)[C@@H](C3CCCC3)C(=O)N(C)[C@H](C(=O)N(C)C)CC(=O)N(C)[C@@H](CC3CC3)C(=O)N[C@@H]([C@@H](C)CC)C(=O)N(C)CC(=O)N(C)[C@H]3C/C=C\CCN(C3=O)[C@@H](Cc3ccc(C)cc3)C(=O)N(C)CC(=O)N[C@@H](CCc3cc(F)c(C(F)(F)F)c(F)c3)C(=O)N2C1 [PP1795] |  |  | A (a compound having 10 or more and less than 20 is denoted as A) | B (a compound having 3 or more and less than 10 is denoted as B) |  |  |
|  | 6.9 |  | 0.066 | CC[C@H](C)[C@@H]1NC(=O)[C@H](CC(C)C)N(C)C(=O)C[C@@H](C(=O)N2CCOCC2)N(C)C(=O)[C@H](C2CCCC2)N(C)C(=O)C2(CCCC2)NC(=O)[C@@H]2CCCN2C(=O)[C@H](CCc2ccc(C(F)(F)F)c(Cl)c2)NC(=O)CN(C)C(=O)[C@H](Cc2ccc(Cl)cc2)N2CCCC[C@@H](C2=O)N(C)C(=O)CN(C)C1=O [PP0532] |  |  |  |  | C (A compound having a KD ratio of 0.1 or more and less than 3 is denoted as C) | B (a compound having 3 or more and less than 10 is denoted as B) |
|  | 18.2 | 0.41 |  | CCC[C@H]1C(=O)N[C@@H](C2CCCC2)C(=O)N(C)CC(=O)N(C)[C@H]2C/C=C\CCN(C2=O)[C@@H](Cc2ccc(C)cc2)C(=O)N(C)CC(=O)N[C@@H](CCc2ccc(C(F)(F)F)c(OC)c2)C(=O)N2CC3(CC3)C[C@H]2C(=O)NC2(CC(C)(C)C2)C(=O)N(C)[C@@H](CC(C)(C)C)C(=O)N(C)[C@H](C(=O)N(C)C)CC(=O)N1C [PP3010] | B (a compound having 3 or more and less than 10 is denoted as B) | B (a compound having 3 or more and less than 10 is denoted as B) |  |  |  |  |
|  | 44.9 |  | 1.1 | CCC[C@H]1C(=O)N[C@@H]([C@@H](C)CC)C(=O)N(C2CC2)CC(=O)N(C)[C@H]2C/C=C\CCN(C2=O)[C@@H](CC2CCCCC2)C(=O)N(C)CC(=O)N[C@@H](CCc2ccc(C(F)(F)F)c(OC)c2)C(=O)N2C[C@H](OCC)C[C@H]2C(=O)N(C)C2(CCC2)C(=O)N(C)[C@@H](C2CCCC2)C(=O)N(C)[C@H](C(=O)N(C)C)CC(=O)N1C [PP2340] |  |  |  |  | B (a compound having 3 or more and less than 10 is denoted as B) | B (a compound having 3 or more and less than 10 is denoted as B) |
|  | 121 |  | 2.7 | C=CCCCCN(C)C(=O)[C@@H]1CC(=O)N(C)[C@@H](CC2CC2)C(=O)N[C@@H](CC=C)C(=O)N(C)CC(=O)N(C)[C@H]2C/C=C\CCN(C2=O)[C@@H](Cc2ccc(C(F)(F)F)cc2)C(=O)N(C)CC(=O)N[C@@H](CCc2cc(F)c(C(F)(F)F)c(F)c2)C(=O)N2C[C@H](OCC)C[C@H]2C(=O)NC2(CCC2)C(=O)N(C)[C@@H](C2CCCC2)C(=O)N1C [PP1554] |  |  | A (a compound having 10 or more and less than 20 is denoted as A) | A (a compound having 10 or more and less than 20 is denoted as A) |  |  |
|  | 17.6 |  | 0.34 | CCC[C@H]1C(=O)N[C@@H]([C@@H](C)CC)C(=O)N(CCC)CC(=O)N(C)[C@H]2C/C=C\CCN(C2=O)[C@@H](Cc2ccc(C)cc2)C(=O)N(C)CC(=O)N[C@@H](CCc2cc(F)c(C(F)(F)F)c(F)c2)C(=O)N2C[C@H](OCC)C[C@H]2C(=O)NC2(CC(C)(C)C2)C(=O)N(C)[C@@H](C2CCCC2)C(=O)N(C)[C@H](C(=O)N(C)C)CC(=O)N1C [PP2108] |  |  |  |  | A (a compound having 10 or more and less than 20 is denoted as A) | A (a compound having 10 or more and less than 20 is denoted as A) |
|  | 28.7 | 1.4 |  | CCO[C@@H]1C[C@H]2C(=O)NC3(CC(C)(C)C3)C(=O)N(C)[C@@H](C3CCCC3)C(=O)N(C)[C@H](C(=O)N(C)CC)CC(=O)N(C)[C@@H](CC(C)C)C(=O)N[C@@H]([C@@H](C)CC)C(=O)N(C)CC(=O)N(C)[C@H]3C/C=C\CCN(C3=O)[C@@H](Cc3ccc(C(F)F)cc3)C(=O)N(C)CC(=O)N[C@@H](CCc3ccc(C4CC4)c(OC)c3)C(=O)N2C1 [PP3153] | A (a compound having 10 or more and less than 20 is denoted as A) | A (a compound having 10 or more and less than 20 is denoted as A) |  |  |  |  |
|  | 7.8 |  | 0.11 | CC[C@H](C)[C@@H]1NC(=O)[C@H](C2CCC2)N(C)C(=O)C[C@@H](C(=O)N(C)CC)N(C)C(=O)[C@H](C2CCCC2)N(C)C(=O)C2(CCC2)NC(=O)[C@@H]2C[C@H](C)CN2C(=O)[C@H](CCc2cc(F)c(C(F)(F)F)c(F)c2)NC(=O)CN(C)C(=O)[C@H](Cc2ccc(C(F)(F)F)cc2)N2CC/C=C\C[C@@H](C2=O)N(C)C(=O)CN(C)C1=O [PP2082] |  |  |  |  | AA (a compound having 20 or more is denoted as AA) | A (a compound having 10 or more and less than 20 is denoted as A) |
|  | 19.5 |  | 0.72 | CCO[C@@H]1C[C@H]2C(=O)NC3(CC(C)(C)C3)C(=O)N(C)[C@@H](C(CC)CC)C(=O)N(C)[C@H](C(=O)N(C)C)CC(=O)N(C)[C@@H](CC3CC3)C(=O)N[C@@H]([C@@H](C)CC)C(=O)N(C)CC(=O)N(C)[C@H]3C/C=C\CCN(C3=O)[C@@H](Cc3ccc(C)cc3)C(=O)N(C)CC(=O)N[C@@H](CCc3ccc(Cl)c(Cl)c3)C(=O)N2C1 [PP2182] |  |  |  |  | AA (a compound having 20 or more is denoted as AA) | A (a compound having 10 or more and less than 20 is denoted as A) |
